Values quoted from earlier work in patent US5817671A, “5-HT1F agonists” (Eli Lilly and Company, priority 1997, dated 1998).
Blank lines part the entries; values can stand above or below the compound they belong to.

Tests used:
[1] = tested on: neurogenic inflammation, peptide extravasation; conditions: Moskowitz, Neurology 43(suppl. 3), S16-S20 (1993)
[2] = treatment of migraine
[3] = in vivo
[4] = in vivo; remark: listed apart in the source
5-HT1F receptor = biological target: T1, 5-HT1F receptor (Homo sapiens, UniProt P30939); conditions: reported by Weinshank et al., WO93/14201
T1 sequence (P30939 1-366): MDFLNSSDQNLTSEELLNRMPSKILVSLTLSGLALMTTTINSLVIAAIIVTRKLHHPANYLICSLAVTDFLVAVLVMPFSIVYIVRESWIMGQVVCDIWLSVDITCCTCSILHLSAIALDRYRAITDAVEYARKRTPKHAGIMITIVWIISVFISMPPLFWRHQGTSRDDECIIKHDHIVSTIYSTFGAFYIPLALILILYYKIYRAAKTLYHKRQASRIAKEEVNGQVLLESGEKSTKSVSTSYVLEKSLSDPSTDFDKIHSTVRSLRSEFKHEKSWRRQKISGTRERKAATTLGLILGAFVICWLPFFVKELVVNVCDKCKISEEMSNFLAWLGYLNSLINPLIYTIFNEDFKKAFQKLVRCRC

[5] = tested on: exploratory behavior of arthritic rats; conditions: arthritic animals; Larsen and Arnt (1985)

- duration of action (in words) [3]: relatively short duration of action
- bioavailability (in words) [4]: low bioavailability
Compound: CNS(=O)(=O)Cc1ccc2[nH]cc(CCN(C)C)c2c1 [Sumatriptan]
- block of neurogenic inflammation (in words) [1]: neurogenic inflammation is blocked
- undesirable side effects (in words) [2]: undesirable side effects, particularly vasoconstriction

Compound: NCCc1c[nH]c2ccc(O)cc12 [serotonin]
- inhibition of forskolin stimulated cAMP production (in words) (5-HT1F receptor): inhibit forskolin stimulated cAMP production

Compound: CN(C)CCCC1(c2ccc(F)cc2)OCc2cc(C#N)ccc21 (stereo not drawn) [citalopram]
- effect on exploratory behavior (in words) [5]: improve exploratory behavior
